# Data as given in PMC9764404 (ACS infectious diseases, 2022).
# Legend:
# Type in all cases: binding
# LdtAb [1] = target: T1, LdtAb (Acinetobacter baumannii, UniProt A0A222A2P4); assay: acylation by reporter substrate; conditions: covalent; very slow acylation
# LdtAb [2] = target: T1, LdtAb; assay: LC-MS of acyl-enzyme formation; conditions: covalent, 2 μM enzyme, 200 μM antibiotic, PBS pH 7.4, 22 °C
# LdtAb [3] = target: T1, LdtAb; assay: LC-MS of acyl-enzyme formation; conditions: covalent; 2 μM enzyme, 200 μM antibiotic; PBS pH 7.4; 22 °C
SMILES,acylation by reporter substrate (data not shown) (LdtAb [1]),% acyl-enzyme after 18 h (LdtAb [2]) [%],apparent acylation rate constant k2 (LdtAb [3]) [h⁻¹]
O=C(Cc1cccs1)N[C@@H]1C(=O)N2C(C(=O)O)=C(/C=C/c3ccc([N+](=O)[O-])cc3[N+](=O)[O-])CS[C@H]12 [nitrocefin],acylation of LdtAb by nitrocefin took more than six hours to reach completion,–,–
C[C@@H](O)[C@H]1C(=O)N2C(C(=O)O)=C(SCCN=CN)C[C@H]12 [imipenem],–,95,–
C[C@@H](O)[C@H]1C(=O)N2C(C(=O)O)=C(S[C@@H]3CN[C@H](CNS(N)(=O)=O)C3)[C@H](C)[C@H]12 [doripenem],–,21,–
C[C@@H](O)[C@H]1C(=O)N2C(C(=O)O)=C(S[C@@H]3CN[C@H](C(=O)N(C)C)C3)[C@H](C)[C@H]12 [meropenem],–,48,–
C[C@@H](O)[C@H]1C(=O)N2C(C(=O)O)=C(S[C@@H]3CN[C@H](C(=O)Nc4cccc(C(=O)O)c4)C3)[C@H](C)[C@H]12 [ertapenem],–,97,0.22 ± 0.01
